This is an account of results in patent US11939314B2, “Quinolin-2-one derivatives” (MERCK PATENT GMBH, priority 2016, dated 2024).

Broadly, the IC50 is the point on the concentration scale where inhibition reaches its midpoint.

The target in assay [1] is T1, PDGFRalpha(V561D) (Homo sapiens, UniProt P16234, V561D).
T1 construct: recombinant human PDGFRalpha, amino acids 550end containing the V561 D mutation; 6His (N)
Nature of the assay: PDGFRalpha(V561D) assay. Particulars: recombinant human PDGFRalpha aa 550-end, 200 μM ATP, 1.4E-06 means 1.4×10^−6, read-out: Inhibition (IC50) of PDGFRα (V561D). It counts as biochemical. The essentials: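 Radiometric filter-binding assay: substrate phosphorylation by recombinant N-His-tagged human PDGFRα 550-end V561D was quenched with 3% phosphoric acid after 40 min at room temperature, then counted.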

In assay [2] the target is T2, c-Kit(V654A) (Homo sapiens, UniProt P10721, V654A).
T2 construct: amino acids 544-end containing the V654A mutation; GST (N)
Nature of the assay: c-Kit(V654A) assay. It counts as biochemical. Particulars: recombinant human c-Kit aa 544-end, 200 μM ATP, 1.4E-06 means 1.4×10^−6, read-out: Inhibition (IC50) of c-KIT (V654A). The essentials: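 Radiometric filter-binding read-out: substrate 33P incorporation counted by scintillation after P30 filtermat washes in 75 mM phosphoric acid and methanol. Enzyme: N-GST recombinant human c-Kit aa 544-end carrying V654A.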

T2 sequence (P10721 544-976 V654A): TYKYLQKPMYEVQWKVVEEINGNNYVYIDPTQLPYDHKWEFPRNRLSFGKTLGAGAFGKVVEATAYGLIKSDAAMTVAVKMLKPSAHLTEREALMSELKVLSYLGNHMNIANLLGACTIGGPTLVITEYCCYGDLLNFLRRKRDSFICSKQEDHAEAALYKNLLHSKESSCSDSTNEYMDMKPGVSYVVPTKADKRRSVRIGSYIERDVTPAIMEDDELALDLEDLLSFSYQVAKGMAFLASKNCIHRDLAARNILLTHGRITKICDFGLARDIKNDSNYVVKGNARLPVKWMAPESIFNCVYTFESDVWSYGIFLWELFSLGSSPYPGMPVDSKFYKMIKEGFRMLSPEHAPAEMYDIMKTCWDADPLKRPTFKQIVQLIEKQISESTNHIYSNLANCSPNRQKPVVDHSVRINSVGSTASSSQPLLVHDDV
T1 sequence (P16234 550-1089 V561D): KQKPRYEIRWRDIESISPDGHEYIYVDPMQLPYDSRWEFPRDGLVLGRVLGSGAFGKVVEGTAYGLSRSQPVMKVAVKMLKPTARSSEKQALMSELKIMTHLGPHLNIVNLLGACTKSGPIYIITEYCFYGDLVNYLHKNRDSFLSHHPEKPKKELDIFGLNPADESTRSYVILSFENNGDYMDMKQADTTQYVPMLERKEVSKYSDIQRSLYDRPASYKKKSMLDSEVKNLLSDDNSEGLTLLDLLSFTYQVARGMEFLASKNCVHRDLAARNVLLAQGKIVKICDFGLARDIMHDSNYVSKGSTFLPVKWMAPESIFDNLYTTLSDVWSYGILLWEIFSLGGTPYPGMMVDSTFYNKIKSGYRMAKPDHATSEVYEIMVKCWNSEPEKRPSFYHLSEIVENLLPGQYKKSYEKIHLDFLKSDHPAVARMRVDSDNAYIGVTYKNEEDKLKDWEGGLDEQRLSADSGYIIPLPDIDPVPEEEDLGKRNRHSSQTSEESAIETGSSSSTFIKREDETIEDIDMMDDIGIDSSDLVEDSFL

As to `O=C(c1ccc(-n2cc(-c3cc4cc(Cl)ccc4[nH]c3=O)nn2)cc1)N1CCC(F)(F)C1` [A268, 6-chloro-3-{1-[4-(3,3-difluoro-pyrrolidine-1-carbonyl)-phenyl]-1H-[1,2,3]triazol-4-yl}-1H-quinolin-2-one], the IC50 in assay [1] was 0.67 nM; in assay [2], 16 nM.
The corresponding values for `O=C(c1ccc(-n2cc(-c3cc4cc(F)ccc4[nH]c3=O)nn2)cc1)N1CC[C@@H](F)C1` [A269, 6-fluoro-3-{1-[4-((R)-3-fluoro-pyrrolidine-1-carbonyl)-phenyl]-1H-[1,2,3]triazol-4-yl}-1H-quinolin-2-one] are 1.5 nM and 31 nM.
The corresponding values for `O=C(c1ccc(-n2cc(-c3cc4cc(Cl)ccc4[nH]c3=O)nn2)cc1)N1CC[C@@H](F)C1` [A270, 6-chloro-3-{1-[4-((R)-3-fluoro-pyrrolidine-1-carbonyl)-phenyl]-1H-[1,2,3]triazol-4-yl}-1H-quinolin-2-one] are 0.2 nM and 26 nM.
Taken in the same sequence, the figures for `CO[C@@H]1CN(C(=O)c2ccc(-n3cc(-c4cc5cc(Cl)ccc5[nH]c4=O)nn3)cc2)C[C@H]1OC` [A271, 6-chloro-3-{1-[4-((3R,4R)-3,4-dimethoxy-pyrrolidine-1-carbonyl)-phenyl]-1H-[1,2,3]triazol-4-yl}-1H-quinolin-2-one] were 0.51 nM and 50 nM.
For `CO[C@H]1CN(C(=O)c2ccc(-n3cc(-c4cc5cc(Cl)ccc5[nH]c4=O)nn3)cc2)C[C@@H]1OC` [A272, 6-chloro-3-{1-[4-((3S,4S)-3,4-dimethoxy-pyrrolidine-1-carbonyl)-phenyl]-1H-[1,2,3]triazol-4-yl}-1H-quinolin-2-one], the figures for the concentration for half-maximal inhibition (IC50) in assay [1] and in assay [2] were 0.89 nM and 48 nM, respectively.
Turning to `O=C(c1ccc(-n2cc(-c3cc4cc(F)ccc4[nH]c3=O)nn2)cc1)N1CCCC1` [A273, 6-fluoro-3-{1-[4-(pyrrolidine-1-carbonyl)-phenyl]-1H-[1,2,3]triazol-4-yl}-1H-quinolin-2-one], the results for the IC50 in assay [1] and in assay [2] were 4.1 nM and 40 nM, respectively.
For the compound `O=C(c1ccc(-n2cc(-c3cc4cc(F)ccc4[nH]c3=O)nn2)cc1)N1C[C@@H](O)CO1` [A274, 6-fluoro-3-{1-[4-((R)-4-hydroxy-isoxazolidine-2-carbonyl)-phenyl]-1H-[1,2,3]triazol-4-yl}-1H-quinolin-2-one], the IC50 in assay [1] was 3.3 nM; in assay [2] it was 61 nM.
The corresponding values for `O=C(c1ccc(-n2cc(-c3cc4cc(Cl)ccc4[nH]c3=O)nn2)cc1)N1C[C@@H](O)CO1` [A275, 6-chloro-3-{1-[4-((R)-4-hydroxy-isoxazolidine-2-carbonyl)-phenyl]-1H-[1,2,3]triazol-4-yl}-1H-quinolin-2-one] are 0.21 nM and 45 nM.
The corresponding values for `O=C(c1ccc(-n2cc(-c3cc4cc(F)ccc4[nH]c3=O)nn2)cc1)N1C[C@H](O)CO1` [A276, 6-fluoro-3-{1-[4-((S)-4-hydroxy-isoxazolidine-2-carbonyl)-phenyl]-1H-[1,2,3]triazol-4-yl}-1H-quinolin-2-one] are 1.4 nM and 54 nM.
Taken in the same sequence, the figures for `O=C(c1ccc(-n2cc(-c3cc4cc(Cl)ccc4[nH]c3=O)nn2)cc1)N1C[C@H](O)CO1` [A277, 6-chloro-3-{1-[4-((S)-4-hydroxy-isoxazolidine-2-carbonyl)-phenyl]-1H-[1,2,3]triazol-4-yl}-1H-quinolin-2-one] were 2.6 nM and 30 nM.
Consider `O=C(c1ccc(-n2cc(-c3cc4cc(F)ccc4[nH]c3=O)nn2)cc1)N1CCC[C@@H]1CN1CCCC1` [A278, 6-fluoro-3-{1-[4-((R)-2-pyrrolidin-1-ylmethyl-pyrrolidine-1-carbonyl)-phenyl]-1H-[1,2,3]triazol-4-yl}-1H-quinolin-2-one], for which the IC50 in assay [1] worked out at 1.5 nM; in assay [2], 17 nM.
As for `O=C(c1ccc(-n2cc(-c3cc4cc(F)ccc4[nH]c3=O)nn2)cc1)N1CCC[C@H]1CN1CCCC1` [A279, 6-fluoro-3-{1-[4-((S)-2-pyrrolidin-1-ylmethyl-pyrrolidine-1-carbonyl)-phenyl]-1H-[1,2,3]triazol-4-yl}-1H-quinolin-2-one], the IC50 in assay [1] is 0.72 nM; in assay [2] it was 14 nM.
Consider `O=C(c1ccc(-n2cc(-c3cc4cc(F)ccc4[nH]c3=O)nn2)cc1)N1CCC1` [A280, 3-{1-[4-(azetidine-1-carbonyl)-phenyl]-1H-[1,2,3]triazol-4-yl}-6-fluoro-1H-quinolin-2-one], for which the figures for the 50% inhibitory concentration (IC50) in assay [1] and in assay [2] were 53 nM and 77 nM, respectively.
For the compound `CN1CCN(C(=O)C2CCCN2C(=O)c2ccc(-n3cc(-c4cc5cc(F)ccc5[nH]c4=O)nn3)cc2)CC1` (stereo not drawn) [A281, 6-fluoro-3-(1-{4-[2-(4-methyl-piperazine-1-carbonyl)-pyrrolidine-1-carbonyl]-phenyl}-1H-[1,2,3]triazol-4-yl)-1H-quinolin-2-one], the results for the IC50 in assay [1] and in assay [2] were 10 nM and 57 nM, respectively.
The corresponding values for `CN1CCN(C(=O)c2ccc(-n3cc(-c4cc5cc(F)ccc5[nH]c4=O)cn3)cc2)CC1` [A296, 6-fluoro-3-{1-[4-(4-methyl-piperazine-1-carbonyl)-phenyl]-1H-pyrazol-4-yl}-1H-quinolin-2-one] are 14 nM and 38 nM.
For `CO[C@H]1CCN(C(=O)c2ccc(-n3cc(-c4cc5cc(F)ccc5[nH]c4=O)cn3)cc2)C1` [A297, 6-fluoro-3-{1-[4-((S)-3-methoxy-pyrrolidine-1-carbonyl)-phenyl]-1H-pyrazol-4-yl}-1H-quinolin-2-one], the values for the IC50 in assay [1] and in assay [2] were 240 nM and 66 nM, respectively.
The corresponding values for `CO[C@@H]1CCN(C(=O)c2ccc(-n3cc(-c4cc5cc(F)ccc5[nH]c4=O)cn3)cc2)C1` [A298, 6-fluoro-3-{1-[4-((R)-3-methoxy-pyrrolidine-1-carbonyl)-phenyl]-1H-pyrazol-4-yl}-1H-quinolin-2-one] are 21 nM and 41 nM.
As to `COCCO[C@H]1CCN(C(=O)c2ccc(-n3cc(-c4cc5cc(F)ccc5[nH]c4=O)cn3)cc2)C1` [A299, 6-fluoro-3-(1-{4-[(S)-3-(2-methoxy-ethoxy)-pyrrolidine-1-carbonyl]-phenyl}-1H-pyrazol-4-yl)-1H-quinolin-2-one], the IC50 in assay [1] was 23 nM; in assay [2] it was 58 nM.
The corresponding values for `CO[C@@H]1CN(C(=O)c2ccc(-n3cc(-c4cc5cc(F)ccc5[nH]c4=O)cn3)cc2)C[C@H]1OC` [A300, 3-{1-[4-((3R,4R)-3,4-dimethoxy-pyrrolidine-1-carbonyl)-phenyl]-1H-pyrazol-4-yl}-6-fluoro-1H-quinolin-2-one] are 0.76 nM and 68 nM.
Taken in the same sequence, the figures for `CO[C@@H]1C[C@@H](CO)N(C(=O)c2ccc(-n3cc(-c4cc5cc(F)ccc5[nH]c4=O)cn3)cc2)C1` [A301, 6-fluoro-3-{1-[4-((2S,4R)-2-hydroxymethyl-4-methoxy-pyrrolidine-1-carbonyl)-phenyl]-1H-pyrazol-4-yl}-1H-quinolin-2-one] were 1 nM and 43 nM.
As for `CO[C@@H]1C[C@H](CO)N(C(=O)c2ccc(-n3cc(-c4cc5cc(F)ccc5[nH]c4=O)cn3)cc2)C1` [A302, 6-fluoro-3-{1-[4-((2R,4R)-2-hydroxymethyl-4-methoxy-pyrrolidine-1-carbonyl)-phenyl]-1H-pyrazol-4-yl}-1H-quinolin-2-one], the IC50 stood at 1.2 nM in assay [1] and 31 nM in assay [2].
